Measurements: patent US9580414B2, “Salts and hydrates of antipsychotics” (SHASUN PHARMACEUTICALS LIMITED, priority 2012, dated 2017)
“And” between values parts separate entries of the source, which are not always exact repeats. Equal values may be shown once. Where a name gives a salt, the structure may show the parent alone. Read-outs that look alike come from different tables or passages of the source. Blank lines part the entries; values can stand above or below the molecule they belong to.

Assays:
[1] = Comparative solubility study in McIlvaine Buffer pH 3.8; type: physicochemical
Experimental: The solubility study was performed for the dihydrochloride salt of the present invention using the McIlvaine Buffer pH 3.8.

[2] = Single dose oral pharmacokinetics comparative study of Lurasidone monohydrochloride v. dihydrochloride; type: in vivo; conditions: 10 mg/kg, mean plasma, oral gavage, male Sprague Dawley rats
Experimental: Lurasidone salts mean plasma PK parameters were quantified with an API 3200 LC-MS/MS system and illustrated in Table 1.
Male Sprague Dawley rats aged 6-8 weeks and weighing 180-220 g will be used for experiment. Animals will be acclimatized for a minimum period of 5 days. Overnight fasted animals were administered the test substance by oral gavage with a dose equivalent dose of 10 mg/kg of the parent compound with ready to use formulation provided and at a dose volume of 10.06 & 9.6 mL/kg b.w. With mild inhalation anesthesia (Isoflurane), blood samples (200-250 μL) were collected by retro-orbital route at specified time points. Lurasidone hydrochloride and dihydrochloride samples were administered by oral route at a dose volume of 10.06 & 9.6 mL/kg body weight respectively. The actual dosage volume for each animal were calculated based on the fasted body weight. All the animals were administered a single dose on the day of experiment. Blood samples were collected in pre-labeled centrifuge tubes containing anticoagulant (K2EDTA). Blood sampling time points for both the groups were as follows Group 1 & 2—Subgroup 1 (n=5)—0.08, 0.16, 0.33, 0.5, 0.67, 0.83, 1.00 & Subgroup 2 (n=5)—1.5, 2, 3, 6, 12, 18, 24 h. All the animals were administered a single dose on the day of experiment. Blood samples were centrifuged at 4000 rpm at 4° C. for 10 minutes and the corresponding plasma samples were harvested into pre-labeled tubes. Plasma samples will be stored at −80° C. until analysis. The blood samples were centrifuged at 4000 rpm for 10 minutes at 4° C. and the corresponding plasma samples were transferred to clean pre-labeled tubes and stored at −80° C. until analysis.

[3] = Stability by storage under accelerated stability testing conditions; type: physicochemical; conditions: storage at 40° C., 75% RH and 50° C., 90% RH
[4] = Solubility assayed in water; type: physicochemical; conditions: water and mixtures of water with water-miscible solvents; qualitative
Experimental: In particular, the solubility of the compounds of the present invention in comparison with hydrochloride was assayed in water and recorded.

[5] = Comparative solubility study in McIlvaine Buffer pH 3.8; type: physicochemical; remark: listed apart in the source
[6] = cited from earlier work
[7] = in vivo; cited from earlier work
[8] = male, Sprague Dawley, rat, plasma, po
[9] = listed as Monohydrochloride, hydrochloride

- Solubility (mg/ml) Avg. ([1]; average of sample 1 and 2, dihydrochloride dihydrate): 0.6472 mg/mL and 0.9020 mg/mL
- Solubility (mg/ml) Sample 1 ([1]; sample 1, dihydrochloride dihydrate): 0.7220 mg/mL and 0.9548 mg/mL
- Solubility (mg/ml) Sample 2 ([1]; sample 2, dihydrochloride dihydrate): 0.5724 mg/mL and 0.8498 mg/mL
- AUC(0-inf) [2, 8]: 577 ng·h/mL
- AUC(0-t) [2, 8]: 570 ng·h/mL
- Cmax ([2]; male, Sprague Dawley, rat, plasma, po, read-out: Cmax): 659 ng/mL
- AUCextrap ([2]; dihydrochloride dihydrate): 1.29%
- MRTlast ([2]; dihydrochloride dihydrate): 1.05 h
- T1/2 ([2]; dihydrochloride dihydrate): 1.07 h
- stability profile [3]: excellent stability profile
- solubility in water [4]: excellent solubility
Structure (SMILES): O=C1[C@@H]2[C@H]3CC[C@H](C3)[C@@H]2C(=O)N1C[C@@H]1CCCC[C@H]1CN1CCN(c2nsc3ccccc23)CC1 [Di HCl Salt, (3aR,4S,7R,7aS)-2-{(1R,2R)-2-[4-(1,2-benzisothiazol-3-yl)piperazin-1-ylmethyl]cyclohexylmethyl}hexahydro-4,7-methano-2H-isoindole-1,3-dione dihydrochloride dihydrate]

- MRT last [2, 8]: 0.95 h
- half-life [2, 8]: 1.19 h
- AUCextrap [2, 9]: 1.37%
- AUCinf [2, 9]: 357.32 ng·h/mL
- AUClast [2, 9]: 352.41 ng·h/mL
- Cmax [2, 9]: 412.39 ng/mL
- Tmax ([2]; rat): 0.33 h
- Solubility (mg/ml) Avg. ([5]; average of sample 1 and 2, hydrochloride): 0.2126 mg/mL
- solubility ([5]; listed as Lurasidone hydrochloride): less than 0.212 mg/ml
- solubility ([5]; listed as mono hydrochloride salt): around 0.212 mg/ml
- Solubility (mg/ml) Sample 1 ([5]; sample 1, hydrochloride): 0.2104 mg/mL
- Solubility (mg/ml) Sample 2 ([5]; sample 2, hydrochloride): 0.2148 mg/mL
Structure (SMILES): O=C1[C@@H]2[C@H]3CC[C@H](C3)[C@@H]2C(=O)N1C[C@@H]1CCCC[C@H]1CN1CCN(c2nsc3ccccc23)CC1 [Mono HCl Salt, (3aR,4S,7R,7aS)-2-[((1R,2R)-2-{[4-(1,2-benzisothiazol-3-yl)-piperazin-1-yl]methyl}cyclohexyl)methyl]hexahydro-1H-4,7-methanisoindol-1,3-dione hydrochloride]
- solubility in 0.1 N HCl ([6]; 0.1 N HCl): practically insoluble
- solubility in water ([6]; water): very slightly soluble
- bioavailability [7]: less than 12%
